Data taken from patent publication US20220411372A1, “SMALL-MOLECULE INHIBITORS FOR THE B-CATENIN/B-CELL LYMPHOMA 9 PROTEIN-PROTEIN INTERACTION” (H. Lee Moffitt Cancer Center and Research Institute, Inc., priority 2019, published 2022).
pKi: −log10 of the molar value.

These compounds were tested against T1, β-catenin/BCL9 PPI (Homo sapiens, UniProt P35222) (assay: AlphaScreen competitive inhibition assay of the β-catenin/BCL9 PPI). Details: Table 1, inhibitors 1-14; read-out: Ki.
T1 construct: Full-length β-catenin (residues 1-781) were cloned into a pET-28b vector; made in house; host or cells: E. coli BL21 DE3 (β-catenin); BCL9 peptide synthesized by InnoPep Inc
T1 sequence (P35222 1-781): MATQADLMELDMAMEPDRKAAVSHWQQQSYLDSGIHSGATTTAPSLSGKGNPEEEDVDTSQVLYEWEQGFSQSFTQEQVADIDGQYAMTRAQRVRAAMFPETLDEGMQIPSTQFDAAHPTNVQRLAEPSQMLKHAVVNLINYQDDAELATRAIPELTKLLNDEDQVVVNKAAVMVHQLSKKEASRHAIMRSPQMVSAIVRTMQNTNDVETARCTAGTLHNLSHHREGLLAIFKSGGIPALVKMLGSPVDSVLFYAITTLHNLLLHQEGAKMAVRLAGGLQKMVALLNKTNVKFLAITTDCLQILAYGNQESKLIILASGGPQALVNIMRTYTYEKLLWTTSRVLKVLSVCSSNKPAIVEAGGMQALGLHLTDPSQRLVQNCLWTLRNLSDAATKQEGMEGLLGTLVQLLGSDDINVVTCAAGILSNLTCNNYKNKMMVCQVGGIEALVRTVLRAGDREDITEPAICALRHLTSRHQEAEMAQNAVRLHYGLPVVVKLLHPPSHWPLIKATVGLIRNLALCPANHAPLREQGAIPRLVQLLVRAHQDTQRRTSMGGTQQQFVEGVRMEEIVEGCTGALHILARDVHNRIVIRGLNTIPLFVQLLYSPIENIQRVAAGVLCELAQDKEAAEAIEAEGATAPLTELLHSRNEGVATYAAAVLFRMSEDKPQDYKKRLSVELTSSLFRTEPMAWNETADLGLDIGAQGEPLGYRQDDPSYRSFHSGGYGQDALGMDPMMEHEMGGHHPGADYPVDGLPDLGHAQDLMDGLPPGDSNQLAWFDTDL
Format: binding
Experimental: AlphaScreen Assays of β-Catenin and BCL9 Interaction. Experiments were performed in white opaque 384-well plates from PerkinElmer (Waltham, Mass.), and the samples were read on a Synergy 2 plate reader (Biotek, Winooski, Vt.) with excitation at 680 nm and emission at 570 nm. The standard AlphaScreen protocol was used with a sensitivity setting of 200. All dilutions were made in 1× assay buffer containing 25 mM Hepes (pH 7.4), 100 mM NaCl, 0.01% Triton X-100 and 0.1% BSA to minimize nonspecific interactions.
For the β-catenin/BCL9 assay, 5 nM biotinylated BCL9 and 40 nM His6-tagged β-catenin were incubated in assay buffer at 4° C. for 30 min. For the β-catenin/E-cadherin assay, 10 nM biotinylated human E-cadherin, and 40 nM His6-tagged human β-catenin were added and incubated in assay buffer at 4° C. for 30 min. Different concentrations of the tested inhibitor were added and incubated in 20 μL assay buffer at 4° C. for another 1 h. All of the assay plates were covered and gently mixed on an orbital shaker. The donor and acceptor beads were then added to the plates to a final concentration of 10 μg/mL in […]. The mixture was incubated for 1 h at 4° C. before detection. The IC50 value was determined by nonlinear least-square analysis of GraphPad Prism 5.0. […] All of the experiments were performed in triplicate and carried out in the presence of 1% DMSO for small-molecule inhibitors. Each compound was assayed at least by two independent experiments. The results were expressed as mean±standard deviation. The inhibitor selectivity for β-catenin/BCL9 over β-catenin/E-canderin interactions was defined as the ratio of the respective Ki value of β-catenin/E-cadherin interactions over that of β-catenin/BCL9 interactions.

Compound	pKi
CC(C)c1ccc(COC(=O)[C@H]2CCCN(c3cccc(OC(C)(C)C(=O)O)c3)C2)cc1 [Compound 2, (S)-2-(3-(3-(((4-isopropylbenzyl)oxy)carbonyl)piperidin-1-yl)phenoxy)-2-methylpropanoic acid]	< 4.05
CC(C)c1ccc(CNC(=O)[C@@H]2CCCN(c3cccc(OC(C)(C)C(=O)O)c3)C2)cc1 [Compound 3, (R)-2-(3-(3-((4-isopropylbenzyl)carbamoyl)piperidin-1-yl)phenoxy)-2-methylpropanoic acid]	≥ 4.30
CC(C)c1ccc(CNC(=O)[C@H]2CCCN(c3cccc(OC(C)(C)C(=O)O)c3)C2)cc1 [Compound 4, (S)-2-(3-(3-((4-isopropylbenzyl)carbamoyl)piperidin-1-yl)phenoxy)-2-methylpropanoic acid]	< 4.05
CC(C)c1ccc(CN(C)C(=O)[C@@H]2CCCN(c3cccc(OC(C)(C)C(=O)O)c3)C2)cc1 [Compound 5, (R)-2-(3-(3-((4-isopropylbenzyl)(methyl)carbamoyl)piperidin-1-yl)phenoxy)-2-methylpropanoic acid]	> 4.30
CCN(Cc1ccc(C(C)C)cc1)C(=O)[C@@H]1CCCN(c2cccc(OC(C)(C)C(=O)O)c2)C1 [Compound 7, (R)-2-(3-(3-(ethyl(4-isopropylbenzyl)carbamoyl)piperidin-1-yl)phenoxy)-2-methylpropanoic acid]	< 4.05
CCN(Cc1ccc(C(C)C)cc1)C(=O)[C@H]1CCCN(c2cccc(OC(C)(C)C(=O)O)c2)C1 [Compound 8, (S)-2-(3-(3-(ethyl(4-isopropylbenzyl)carbamoyl)piperidin-1-yl)phenoxy)-2-methylpropanoic acid]	< 4.05
CC(C)c1ccc(CN(C(=O)[C@@H]2CCCN(c3cccc(OC(C)(C)C(=O)O)c3)C2)C(C)C)cc1 [Compound 9, (R)-2-(3-(3-(isopropyl(4-isopropylbenzyl)carbamoyl)piperidin-1-yl)phenoxy)-2-methylpropanoic acid]	< 4.05
CC(C)c1ccc(CN(C(=O)[C@H]2CCCN(c3cccc(OC(C)(C)C(=O)O)c3)C2)C(C)C)cc1 [Compound 10, (S)-2-(3-(3-(isopropyl(4-isopropylbenzyl)carbamoyl)piperidin-1-yl)phenoxy)-2-methylpropanoic acid]	≥ 4.30
CC(C)c1ccc(CN(C(=O)[C@@H]2CCCN(c3cccc(OC(C)(C)C(=O)O)c3)C2)C2CC2)cc1 [Compound 11, (R)-2-(3-(3-(cyclopropyl(4-isopropylbenzyl)carbamoyl)piperidin-1-yl)phenoxy)-2-methylpropanoic acid]	≥ 4.30

More lines, now with the values ahead:

pKi	Compound
< 4.05	CC(C)c1ccc(CN(C(=O)[C@H]2CCCN(c3cccc(OC(C)(C)C(=O)O)c3)C2)C2CC2)cc1 [Compound 12, (S)-2-(3-(3-(cyclopropyl(4-isopropylbenzyl)carbamoyl)piperidin-1-yl)phenoxy)-2-methylpropanoic acid]
≥ 4.30	CC(C)c1ccc(CCNC(=O)[C@@H]2CCCN(c3cccc(OC(C)(C)C(=O)O)c3)C2)cc1 [Compound 13, (R)-2-(3-(3-((4-isopropylphenethyl)carbamoyl)piperidin-1-yl)phenoxy)-2-methylpropanoic acid]
≥ 4.05	CC(C)c1ccc(CCNC(=O)[C@H]2CCCN(c3cccc(OC(C)(C)C(=O)O)c3)C2)cc1 [Compound 14, (S)-2-(3-(3-((4-isopropylphenethyl)carbamoyl)piperidin-1-yl)phenoxy)-2-methylpropanoic acid]

Same assay, conditions: Table 2, inhibitors 15-26; read-out: Ki

pKi	Compound
≥ 5.00	CC(C)c1ccc(COC(=O)[C@@H]2CCCN(c3cccc(OC(C)(C)C(=O)N4CCNCC4)c3)C2)cc1 [Compound 15, (R)-4-(2-(3-(3-(((4-isopropylbenzyl)oxy)carbonyl)piperidin-1-yl)phenoxy)-2-methylpropanoyl)piperazin-1-ium chloride]
≥ 5.00	CC(C)c1ccc(COC(=O)[C@H]2CCCN(c3cccc(OC(C)(C)C(=O)N4CCNCC4)c3)C2)cc1 [Compound 16, (S)-4-(2-(3-(3-(((4-isopropylbenzyl)oxy)carbonyl)piperidin-1-yl)phenoxy)-2-methylpropanoyl)piperazin-1-ium chloride]
